We go through 12 compounds from patent publication US20170226150A1, “TRITERPENOID COMPOSITION OF ANTRODIA CINNAMOMEA, PREPARATION AND ANALYSIS METHOD THEREOF” (KAOHSIUNG MEDICAL UNIVERSITY, priority 2011, published 2017).

In brackets after ≈: the same amount, converted by molar mass.

Data set [1] has as its system CCRF-CEM human acute lymphoblastic leukemia cells. In words: Cytotoxicity test, MTT colorimetric method, CCRF-CEM. The class given is cell-based. The procedure: (§1) The cytotoxicity test of the obtained major ergostane triterpenoid compounds (zhankuic acid A, zhankuic acid C, antcin C and antcin K) and their stereoisomeric pure compounds (compounds E1 to E6 and E9 to E10) were performed on three leukemia cell lines using MTT (3-(4,5-dimethylthiazol-2-yl)-2,5-diphenyltetrazolium bromide) colorimetric method, and the results were referred to Table 8.
(Tetrazolium dyes change colour on reduction, which living cells bring about.)

Data set [2] concerns HL 60 human promyelocytic leukemia cells. In words: Cytotoxicity test, MTT colorimetric method, HL 60. The data set is classed as cell-based. The procedure:
as §1

Data set [3] relates to Molt 4 human acute lymphoblastic leukemia cells. In words: Cytotoxicity test, MTT colorimetric method, Molt 4. The class given is cell-based. Here is the method:
as §1

Data set [4] in a line: Solubility in solvents for optical rotation measurement. The data set is classed as physicochemical. The conditions noted are these: methanol or ethanol. Here is the method: After determining the absolute configuration, we tried to measure the optical rotation aiming to complete the spectral profile for the isolated compounds. In a previous report, the mixture form of zhankuic acid A was dissolved in methanol to measure its optical rotation. […] The solubility of compounds E9 and E10 improved through using acetone-methanol mixture. Considering compounds solubility and the convenience of collecting physical and spectral data using single solvent, pyridine was used in optical rotation experiment. The optical rotation of compound E9 was [α]D^25+32.1 (c 0.70, pyridine), and that of compound E10 was [α]D^25+9.0 (c 0.84, pyridine).

For “3α,4β,7β-trihydroxy-4α-methylergosta-8,24(28)-dien-11-on-25S-26-oic acid [Compound E1]”, the “IC50 (μg/ml) CCRF-CEM” value in data set [1] was more than 80 µg/mL. In addition, in data set [2], the “IC50 (μg/ml) HL 60” value is more than 80 µg/mL. In addition, the “IC50 (μg/ml) Molt 4” value in data set [3] was more than 80 µg/mL.

With `C=C(CC[C@@H](C)[C@H]1CC[C@H]2C3=C(C(=O)C[C@]12C)[C@@]1(C)CC[C@@H](O)[C@](C)(O)[C@@H]1C[C@@H]3O)[C@@H](C)C(=O)O` [Compound E2, 3α,4β,7β-trihydroxy-4α-methylergosta-8,24(28)-dien-11-on-25R-26-oic acid], in data set [1], the “IC50 (μg/ml) CCRF-CEM” value was more than 80 µg/mL. In addition, in data set [2], the “IC50 (μg/ml) HL 60” value is more than 80 µg/mL. In addition, the “IC50 (μg/ml) Molt 4” value in data set [3] is more than 80 µg/mL.

In the case of `C=C(CC[C@@H](C)[C@H]1CC[C@H]2C3=C(C(=O)C[C@]12C)[C@@]1(C)CCC(=O)[C@@H](C)C1C[C@@H]3O)[C@H](C)C(=O)O` (stereo partly drawn) [Compound E3, 7β-hydroxy-4α-methylergosta-8,24(28)-dien-3,11-dion-25S-26-oic acid], the “IC50 (μg/ml) CCRF-CEM” value in data set [1] was 30.681 ± 5.30 µg/mL (≈ 65.2 µM). Besides, in data set [2], the “IC50 (μg/ml) HL 60” value is more than 80 µg/mL. Moreover, in data set [3], the “IC50 (μg/ml) Molt 4” value was found to be 77.04 ± 2.78 µg/mL (≈ 164 µM).

Take `C=C(CC[C@@H](C)[C@H]1CC[C@H]2C3=C(C(=O)C[C@]12C)[C@@]1(C)CCC(=O)[C@@H](C)C1C[C@@H]3O)[C@@H](C)C(=O)O` (stereo partly drawn) [Compound E4, 7β-hydroxy-4α-methylergosta-8,24(28)-dien-3,11-dion-25R-26-oic acid]: the “IC50 (μg/ml) CCRF-CEM” value in data set [1] is 27.94 ± 6.44 µg/mL (≈ 59.4 µM). Also, the “IC50 (μg/ml) HL 60” value in data set [2] was more than 80 µg/mL. For the same compound, the “IC50 (μg/ml) Molt 4” value in data set [3] was found to be 54.28 ± 1.96 µg/mL (≈ 115 µM).

`C=C(CC[C@@H](C)[C@H]1CC[C@H]2C3=C(C(=O)[C@H](O)[C@]12C)[C@@]1(C)CC[C@@H](O)[C@@H](C)C1CC3=O)[C@@H](C)C(=O)O` (stereo partly drawn) [Compound E5, 3α,12α-dihydroxy-4α-methylergosta-8,24(28)-dien-7,11-dion-25R-26-oic acid]: the “IC50 (μg/ml) CCRF-CEM” value in data set [1] was more than 80 µg/mL. Moreover, the “IC50 (μg/ml) HL 60” value in data set [2] was more than 80 µg/mL. Besides, the “IC50 (μg/ml) Molt 4” value in data set [3] is more than 80 µg/mL.

As for `C=C(CC[C@@H](C)[C@H]1CC[C@H]2C3=C(C(=O)[C@H](O)[C@]12C)[C@@]1(C)CC[C@@H](O)[C@@H](C)C1CC3=O)[C@H](C)C(=O)O` (stereo partly drawn) [Compound E6, 3α,12α-dihydroxy-4α-methylergosta-8,24(28)-dien-7,11-dion-25S-26-oic acid], the “IC50 (μg/ml) CCRF-CEM” value in data set [1] is more than 80 µg/mL. Also, the “IC50 (μg/ml) HL 60” value in data set [2] was more than 80 µg/mL. For the same compound, in data set [3], the “IC50 (μg/ml) Molt 4” value is more than 80 µg/mL.

As to `C=C(CC[C@@H](C)[C@H]1CC[C@H]2C3=C(C(=O)C[C@]12C)[C@@]1(C)CCC(=O)[C@@H](C)C1CC3=O)[C@H](C)C(=O)O` (stereo partly drawn) [Compound E9, 4α-methylergosta-8,24(28)-dien-3,7,11-trion-25S-26-oic acid], the “solubility in single solvent” value in data set [4] is “not sufficient”. Also, the “IC50 (μg/ml) CCRF-CEM” value in data set [1] came out at 21.99 ± 7.91 µg/mL (≈ 46.9 µM). Moreover, in data set [2], the “IC50 (μg/ml) HL 60” value is 54.67 ± 8.14 µg/mL (≈ 117 µM). Further, the “IC50 (μg/ml) Molt 4” value in data set [3] is 42.16 ± 2.33 µg/mL (≈ 90 µM).

`C=C(CC[C@@H](C)[C@H]1CC[C@H]2C3=C(C(=O)C[C@]12C)[C@@]1(C)CCC(=O)[C@@H](C)C1CC3=O)[C@@H](C)C(=O)O` (stereo partly drawn) [Compound E10, 4α-methylergosta-8,24(28)-dien-3,7,11-trion-25R-26-oic acid]: the “solubility in single solvent” value in data set [4] is “not sufficient”. Besides, in data set [1], the “IC50 (μg/ml) CCRF-CEM” value was 22.90 ± 7.60 µg/mL (≈ 48.9 µM). For the same compound, in data set [2], the “IC50 (μg/ml) HL 60” value is 23.32 ± 1.60 µg/mL (≈ 49.8 µM). In addition, the “IC50 (μg/ml) Molt 4” value in data set [3] was 16.44 ± 3.77 µg/mL (≈ 35.1 µM).

As for `C=C(CC[C@@H](C)[C@H]1CC[C@H]2C3=C(C(=O)C[C@]12C)[C@@]1(C)CCC(=O)[C@@H](C)[C@@H]1CC3=O)C(C)C(=O)O` (some centres unmarked) [Zhankuic acid A, zhankuic acid A], the “IC50 (μg/ml) CCRF-CEM” value in data set [1] was 47.04 ± 6.191 µg/mL (≈ 100 µM). In data set [2], the “IC50 (μg/ml) HL 60” value was found to be 69.98 ± 18.98 µg/mL (≈ 149 µM). The “IC50 (μg/ml) Molt 4” value in data set [3] stood at 53.23 ± 3.88 µg/mL (≈ 114 µM).

For the compound `C=C(CC[C@@H](C)[C@H]1CC[C@H]2C3=C(C(=O)[C@H](O)[C@]12C)[C@@]1(C)CC[C@@H](O)[C@@H](C)[C@@H]1CC3=O)C(C)C(=O)O` (some centres unmarked) [Zhankuic acid C, zhankuic acid C], the “IC50 (μg/ml) CCRF-CEM” value in data set [1] is more than 80 µg/mL. Further, the “IC50 (μg/ml) HL 60” value in data set [2] was more than 80 µg/mL. In addition, the “IC50 (μg/ml) Molt 4” value in data set [3] is more than 80 µg/mL.

As to antcin C, the “IC50 (μg/ml) CCRF-CEM” value in data set [1] turned out to be 28.82 ± 6.79 µg/mL. In data set [2], the “IC50 (μg/ml) HL 60” value came out at 47.02 ± 4.45 µg/mL. The “IC50 (μg/ml) Molt 4” value in data set [3] amounted to 55.02 ± 3.34 µg/mL.

As to antcin K, the “IC50 (μg/ml) CCRF-CEM” value in data set [1] was more than 80 µg/mL. For the same compound, in data set [2], the “IC50 (μg/ml) HL 60” value was more than 80 µg/mL. For the same compound, the “IC50 (μg/ml) Molt 4” value in data set [3] is more than 80 µg/mL.
